Assay [1] addresses T1, Siglec-1 (Homo sapiens, UniProt Q9BZZ2). The assay is described as follows: VLP capture by Siglec-1 transfected Raji B cells. It is filed as cell-based. As to conditions: mAbs 10 μg/ml; sialyllactose at indicated concentrations, 30 min prior to VLP pulse. On the procedure:
Raji cells (2×10^6) were transfected with vector backbone pCMV6-Entry (Origene) comprising the coding region of Siglec-1, Siglec-5, or Siglec-7 using Amaxa nucleofector as recommended by the manufacturer. At 36 h posttransfection, cells were assessed for VLP capture and HIV-1 trans-infection (at a ratio 2:1) as described above. When indicated, cells were pre-incubated with decreasing concentrations of 3′-Sialyllactose (Carbosynth) or Lactose (Sigma-Aldrich) 30 min prior to VLP pulse. In experiments with envelope-deficient viruses, 5×10^5 cells were pulsed with 100 ng of p24^Gag estimated by ELISA for 4 h at 37° C. and assessed for capture and trans-infection (at a ratio 2:1) as aforementioned. HEK-293T cells were transfected using Fugene HD (Promega) and assessed 24 h posttransfection as described for Raji cells. Trans-infection of HEK-293T was tested in a different luminometer (Luminoskan Ascent, Thermo Labsystems), and collected data were normalized to 100%. Transfection efficiency in both cell types was assessed staining cells with anti-Siglec-1-PE 7-239 mAb, anti-Siglec-7-PE 5-386 mAb (AbD Serotec), and anti-Siglec-5/14-PE 1A5 mAb (Biolegend) and evaluated by FACS. Stable Raji DC-SIGN cells were labeled with anti-DC-SIGN-PE DCN46 mAb (BD Pharmigen).

Another assay concerns mDCs. The assay is described as follows: Lactose and GM3 polar head group treatment of mDCs before LUV/VLP capture. Particulars: mDCs pre-incubated with 5 to 10 mM compound, relative to mock-treated mDCs. It is filed as cell-based, human. On the procedure:
mDCs were preincubated with or without 5 or 10 mM of lactose (Sigma-Aldrich Co., Saint Louis, Mo., US) and soluble GM3 carbohydrate head group (Carbosynth Ltd., Compton, Berkshire, GB) for 30 min at RT. Cells were then pulsed with 50 μM of GM3-containing LUVHIv-tRed and 75 ng of sucrose-pelleted VLPHIv-Gag-eGFP Gag for 2 h at 37° C., at a final concentration of 5 or 10 mM for the compounds tested. Cells were analyzed by FACS as described previously.

Assay [2] addresses T1, Siglec-1. In words: VLP capture by LPS mDCs pre-incubated with α-Siglec-1 mAbs. The assay is classed as cell-based. Details: Siglec-1 expressed in LPS mDCs capture distinct ganglioside containing vesicles; endogenous in cells; host or cells: LPS-matured monocyte-derived dendritic cells (LPS mDCs) from donor PBMCs. Particulars: 2 μg/ml mAb 7D2 treated with at least 100-fold molar excess of human recombinant protein. On the procedure: FIG. 11. Siglec-1 expressed in LPS mDCs capture distinct ganglioside containing vesicles, such as HIV-1 viral-like particles, liposomes, and exosomes. Capture of VLPHIV-Gag-eGFP by LPS mDCs that had been pre-incubated with decreasing concentrations of α-Siglec-1 mAb 7D2 before VLP exposure for 30 min at 37° C.
FIG. 12. Capture of VLPHIV-Gag-eGFP by LPS mDCs that had been pre-incubated with or without 2 μg/ml of α-Siglec-1 mAb 7D2 previously treated or not with at least a 100-fold molar excess of the indicated human recombinant proteins. Of note, Siglec-14 shares 100% of amino acid homology with Siglec-5 in the V-set domain.
FIG. 13. Blocking effect of α-Siglec-1 mAb 7-239. (A) Capture of VLPHIV-Gag-eGFP by LPS mDCs that had been pre-incubated with decreasing concentrations of α-Siglec-1 mAb 7-239 before VLP exposure for 30 min at 37° C. […] (B) Capture of VLPHIV-Gag-eGFP by LPS mDCs that had been pre-incubated with 10 μg/ml of the indicated mAbs before VLP exposure for 3 h at 37° C.

T1 sequence (Q9BZZ2 20-1709): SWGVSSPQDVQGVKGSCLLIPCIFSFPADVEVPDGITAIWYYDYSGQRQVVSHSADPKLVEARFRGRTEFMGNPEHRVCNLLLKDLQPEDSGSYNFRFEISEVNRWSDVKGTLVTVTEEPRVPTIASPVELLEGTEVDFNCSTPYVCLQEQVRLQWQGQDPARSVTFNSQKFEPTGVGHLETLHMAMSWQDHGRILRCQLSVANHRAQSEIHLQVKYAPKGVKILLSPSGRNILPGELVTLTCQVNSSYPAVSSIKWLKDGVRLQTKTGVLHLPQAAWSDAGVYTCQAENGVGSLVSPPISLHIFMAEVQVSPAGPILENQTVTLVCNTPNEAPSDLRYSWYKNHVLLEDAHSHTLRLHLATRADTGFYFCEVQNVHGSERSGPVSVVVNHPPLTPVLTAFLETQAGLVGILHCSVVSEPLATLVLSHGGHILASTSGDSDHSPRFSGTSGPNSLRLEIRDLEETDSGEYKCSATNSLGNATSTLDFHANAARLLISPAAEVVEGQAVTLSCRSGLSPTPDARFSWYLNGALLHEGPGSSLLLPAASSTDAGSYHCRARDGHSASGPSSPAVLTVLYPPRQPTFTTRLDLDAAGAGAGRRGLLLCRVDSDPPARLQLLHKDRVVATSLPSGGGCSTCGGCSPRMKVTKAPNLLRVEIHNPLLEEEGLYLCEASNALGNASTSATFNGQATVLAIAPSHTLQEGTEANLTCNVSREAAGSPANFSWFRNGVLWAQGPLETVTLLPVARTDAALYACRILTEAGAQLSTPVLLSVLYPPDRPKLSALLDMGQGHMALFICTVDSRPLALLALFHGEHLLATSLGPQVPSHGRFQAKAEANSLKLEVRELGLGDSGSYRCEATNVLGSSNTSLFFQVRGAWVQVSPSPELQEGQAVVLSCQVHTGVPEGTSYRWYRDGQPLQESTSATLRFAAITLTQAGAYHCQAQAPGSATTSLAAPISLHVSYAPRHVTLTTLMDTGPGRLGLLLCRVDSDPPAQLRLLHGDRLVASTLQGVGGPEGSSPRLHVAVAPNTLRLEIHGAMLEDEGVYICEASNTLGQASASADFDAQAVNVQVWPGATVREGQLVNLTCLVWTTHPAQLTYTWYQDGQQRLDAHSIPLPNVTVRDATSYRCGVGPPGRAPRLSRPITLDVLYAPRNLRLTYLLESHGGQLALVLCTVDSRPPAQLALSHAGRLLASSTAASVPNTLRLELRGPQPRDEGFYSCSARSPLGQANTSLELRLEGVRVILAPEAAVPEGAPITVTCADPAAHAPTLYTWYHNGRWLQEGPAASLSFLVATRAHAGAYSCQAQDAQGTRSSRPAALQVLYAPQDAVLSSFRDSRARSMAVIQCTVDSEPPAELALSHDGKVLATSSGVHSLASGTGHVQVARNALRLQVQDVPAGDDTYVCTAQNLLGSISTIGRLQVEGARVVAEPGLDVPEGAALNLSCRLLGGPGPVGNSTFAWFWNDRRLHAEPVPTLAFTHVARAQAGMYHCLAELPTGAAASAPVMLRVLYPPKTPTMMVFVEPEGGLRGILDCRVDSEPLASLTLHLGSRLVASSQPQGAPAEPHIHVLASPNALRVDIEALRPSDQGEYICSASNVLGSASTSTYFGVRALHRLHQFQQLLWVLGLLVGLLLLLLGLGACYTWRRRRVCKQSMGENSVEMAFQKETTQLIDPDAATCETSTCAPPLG

`CC(=O)N[C@H]1[C@H]([C@H](O)[C@H](O)CO)O[C@@](O[C@H]2[C@@H](O)[C@@H](CO)O[C@@H](O[C@H]3[C@H](O)[C@@H](O)C(O)O[C@@H]3CO)[C@@H]2O)(C(=O)O)C[C@@H]1O` (stereo partly drawn) [sialyllactose, 3′-Sialyllactose]: the “VLPHIV-Gag-eGFP capture by Siglec-1 transfected Raji cells after pre-incubation with inhibitor” value on Siglec-1 [1] was “blocked VLP capture”.
In the case of `CC(=O)N[C@H]1[C@H]([C@H](O)[C@H](O)CO)O[C@@](O[C@H]2[C@@H](O)[C@@H](CO)O[C@@H](O[C@H]3[C@H](O)[C@@H](O)C(O)O[C@@H]3CO)[C@@H]2O)(C(=O)O)C[C@@H]1O` (stereo partly drawn) [soluble GM3], in the assay on mDCs, the “capture of GM3-containing LUVHIV-tRed by mDCs in the presence of soluble carbohydrate” value is on record as “completely blocked” and the “capture of VLPHIV-Gag-eGFP by mDCs in the presence of soluble carbohydrate” value is listed as “completely blocked”. Further, in the assay with mDCs (listed as GM3 polar head group), the “capture of GM3-containing LUVHIV-tRed by mDCs in the presence of soluble carbohydrate” value was “captured less particles” and the “capture of VLPHIV-Gag-eGFP by mDCs in the presence of soluble carbohydrate” value is “captured less particles”.
“purified Siglec-1: human recombinant Siglec-1 protein used to pre-treat mAb 7D2”: the “VLP capture by LPS mDCs with mAb 7D2 pre-incubated with purified protein” value with Siglec-1 [2] is “completely restored VLP capture”.

Source of the values: patent publication US9789130B2, “Method for blocking HIV entry into dendritic cells by inhibiting sialoadhesin-sialyllactose binding interactions with gangliosides” (LABORATORIOS DEL DR. ESTEVE, S.A., priority 2011, dated 2017).
